For orientation: IC50 means the midpoint of a concentration-inhibition curve.

In brackets after ≈: the same amount, converted by molar mass. Read-outs that look alike come from different tables or passages of the source.

These results are taken from publication PMC9960930, “Saponin and Fatty Acid Profiling of the Sea Cucumber Holothuria atra, α-Glucosidase Inhibitory Activity and the Identification of a Novel Triterpene Glycoside” (Nutrients, 2023).

Data set [1] has as its target α-glucosidase. More on the design: method as in PMID 25735900. The following applies: cited from earlier work; for IC50: purified from S. japonicas, read-out: IC50 against α-glucosidase; for α-glucosidase inhibitory activity: purified from internal organs of S. japonicus.
The target of data set [2] is α-glucosidase. More on the design: method as in PMID 22416705. The note with it: cited from earlier work; for IC50 against α-glucosidase: fatty acids from body wall of S. japonicus; for α-glucosidase inhibitory activity: purified from body wall of S. japonicus.
Data set [3] concerns the target α-glucosidase from Saccharomyces cerevisiae. In words: α-glucosidase inhibition assay (PNPG substrate). In kind it is biochemical. The note with it: commercial pure fatty acids; acarbose positive control; three repeats; read-out: IC50 against α-glucosidase. As for the experimental part: The reference standard for the GC-MS analysis was a Supelco 37 Component FAME mix from Sigma Aldrich (Sigma-Aldrich Chemie GmbH, Steinheim, Germany). Pure fatty acids, including palmitoleic acid (≥98.5%), arachidonic acid, and eicosapentaenoic acid (≥99%), were purchased from Sigma Aldrich (Sigma-Aldrich Chemie GmbH, Steinheim, Germany).
The α-glucosidase inhibition was assessed using the method described by Su et al. (2013 and Trinh et al. (2016), with a slight modification. In total, 100 μL of the α-glucosidase enzyme solution from Saccharomyces cerevisiae (0.2 U/mL in a 0.1 M phosphate buffer at pH 6.8) and 50 μL of the sample dissolved in the phosphate buffer containing 6% DMSO 0.25–20 mg/mL), and were incubated in a transparent 96-well plate at 37 °C for 15 min. Next, 50 μL of PNPG (5 mM in a 0.1 m phosphate buffer) was added. The PNPG was hydrolyzed to release p-nitrophenyl (PNP), and this process was monitored at 405 nm for 30 min at 37 °C, with a BioTek Eon microplate reader (Winooski, VT, USA)) using the Gen5 version 2.06 software. […] The IC50 values were calculated with GraphPad Prism 6 software (GraphPad Software Inc, La Jolla, CA, USA). The IC50 values were subjected to one-way analysis of variance (ANOVA) and the Tukey post hoc test, using GraphPad Prism 6 software to assess any significant differences among the treatments. P-values < 0.05 were considered significant.

The target in data set [4] is α-glucosidase. More on the design: method as in PMID 23355366. The following applies: read-out: IC50 against α-glucosidase; cited from earlier work.
The nature of data set [5]: solubility in NMR solvent. The following applies: noticed when preparing the compounds for NMR analysis.
Data set [6] deals with α-glucosidase. More on the design: method as in PMID 26932154. The following applies: cited from earlier work.
A further data set has as its system diabetic mice. More on the design: method as in PMID 26932154. The following applies: treatment of diabetic mice; cited from earlier work.

As for `CCCCCC/C=C\CCCCCCCC(=O)OCC(O)COC(=O)CCCCCCC/C=C\CCCCCC` [1,3-Dipalmitolein], on α-glucosidase [1], the IC50 is 4.45 µM and the α-glucosidase inhibitory activity entry is reported as “strong”.

For the compound `CCCCCCC/C=C\C/C=C\CCCCCC(=O)O` [7(Z),10(Z)-octadecadienoic acid], on α-glucosidase [2], the “IC50 against α-glucosidase” value was 0.49 ± 0.05 µg/mL (≈ 1.75 µM) and the α-glucosidase inhibitory activity result is given as “strong”.

On to `CCCCCCCCCC/C=C\CCCCCC(=O)O` [7(Z)-octadecenoic acid], for which, on α-glucosidase [2], the “IC50 against α-glucosidase” value is reported as 0.51 ± 0.02 µg/mL (≈ 1.81 µM) and the α-glucosidase inhibitory activity entry is “strong”.

In the case of `CCCCC/C=C\C/C=C\C/C=C\C/C=C\CCCC(=O)O` [Arachidonic acid], the IC50 in data set [3] is 596 ± 44 µM; on α-glucosidase [4] it was 211 ± 2 µM.

On to `CC/C=C\C/C=C\C/C=C\C/C=C\C/C=C\CCCC(=O)O` [Eicosapentaenoic acid], for which, in data set [3], the IC50 worked out at 541 ± 39 µM.

Turning to `CCCCCC/C=C\CCCCCCCC(=O)O` [Palmitoleic acid], the IC50 was 320 ± 32 µM in data set [3] and 265 ± 2 µM at α-glucosidase [4].

Consider `CCCCCCCC/C=C\CCCCCCCC(=O)O` [cis-9-octadecenoic acid], for which, at α-glucosidase [1], the IC50 was 14.9 µM and the α-glucosidase inhibitory activity result was “strong”.

`CC1OC(OC2C(OC3CCC4(C)C5=CC(O)C67C(=O)OC(C)(C8CCC(C)(C)O8)C6(O)CCC7(C)C5CCC4C3(C)C)OCC(O)C2O)C(O)C(O)C1O` (stereo not drawn) [compound 1, desholothurin B]: the “solubility in methanol-d4” value in data set [5] is “soluble”.

Regarding `COC1C(O)C(CO)OC(OC2C(O)C(CO)OC(OC3C(C)OC(OC4C(OC5CCC6(C)C7=CC(O)C89C(=O)OC(C)(CCCC(C)C)C8(O)CCC9(C)C7CCC6C5(C)C)OCC(OS(=O)(=O)O)C4O)C(O)C3O)C2O)C1O.[Na+]` (stereo not drawn) [echinoside A], in the data set on α-glucosidase [6], the α-glucosidase activity result is “inhibited”. In addition, in the data set on diabetic mice, the “postprandial blood glucose levels” value is “suppressed postprandial blood glucose levels”.

Consider `CO[C@@H]1[C@@H](O)[C@H](O[C@@H]2[C@@H](O)[C@H](O[C@H]3[C@H](O)[C@@H](O)[C@H](O[C@H]4[C@H](O[C@H]5CC[C@]6(C)C7=C[C@H](O)[C@@]89C(=O)O[C@@](C)(C%10CCC(C)(C)O%10)[C@@]8(O)CC[C@@]9(C)[C@@H]7CC[C@H]6C5(C)C)OC[C@@H](OS(=O)(=O)O)[C@@H]4O)O[C@@H]3C)O[C@H](CO)[C@H]2O)O[C@H](CO)[C@H]1O` (stereo partly drawn) [holothurin A], for which, in the data set on α-glucosidase [6], the α-glucosidase activity entry is reported as “inhibited”. Besides, in the data set on diabetic mice, the “postprandial blood glucose levels” value is on record as “suppressed postprandial blood glucose levels”.
